Measurements as given in the supplement of paper PMC10307832.

What was measured:
Assay in all cases: relative viability (nuclei count vs DMSO), 5 days (fraction); higher = more cells survive
[1] = compound: COc1cccc2cc(-c3nc([C@H]4CC[C@H](C(=O)O)CC4)n4ncnc(N)c34)[nH]c12 [OSI-027] + COc1cc2c(Oc3ccc(NC(=O)C4(C(=O)Nc5ccc(F)cc5)CC4)cc3F)ccnc2cc1OCCCN1CCOCC1 [Foretinib] (partner 0.25 µM)
Procedure, shortened: (§1)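 A single step with final 0.05% Triton X-100, 1% formaldehyde and 1 ug/ml Hoechst fixed the cells and stained nuclei 5 days after treatment. Lung cancer cell lines in 1536-well plates had been treated by pin tool the day after seeding with one drug alone or a fixed anchor-drug dose plus five library-drug doses (not always all listed) in √10 steps, and nuclei were counted on 4× images. Relative viability is the ratio of nuclei in treated wells to nuclei in vehicle wells, taken as the median of duplicate plates.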

[2] = compound: Cc1nc(NC(=O)N2CCC[C@H]2C(N)=O)sc1-c1ccnc(C(C)(C)C(F)(F)F)c1 [Alpelisib] + CS(=O)(=O)CCNCc1ccc(-c2ccc3ncnc(Nc4ccc(OCc5cccc(F)c5)c(Cl)c4)c3c2)o1 [Lapatinib] (partner 2 µM)
Procedure, shortened: as §1

[3] = compound: Cc1nc(NC(=O)N2CCC[C@H]2C(N)=O)sc1-c1ccnc(C(C)(C)C(F)(F)F)c1 [Alpelisib] + Cc1nc(Nc2ncc(C(=O)Nc3c(C)cccc3Cl)s2)cc(N2CCN(CCO)CC2)n1 [Dasatinib] (partner 0.075 µM)
Procedure, shortened: as §1

[4] = compound: Cc1nc(NC(=O)N2CCC[C@H]2C(N)=O)sc1-c1ccnc(C(C)(C)C(F)(F)F)c1 [Alpelisib] + O=C(CCCCCCC(=O)Nc1ccccc1)NO [Vorinostat] (partner 1 µM)
Procedure, shortened: as §1

Q: How did the relative viability ([1]; first compound 0.01 µM) turn out when NCI-H2087 was run?
A: 1.11

Q: What about the relative viability ([1]; first compound 0.03162 µM) of the same cell line?
A: 1.1

Q: And the relative viability ([1]; first compound 0.1 µM)?
A: 1.01

Q: And the relative viability ([1]; first compound 0.3162 µM)?
A: 0.863

Q: And the relative viability ([1]; first compound 1 µM)?
A: 0.39

Q: What about the relative viability ([2]; first compound 0.04 µM) of the same cell line?
A: 1.02

Q: And the relative viability ([2]; first compound 0.1265 µM)?
A: 0.978

Q: And the relative viability ([2]; first compound 0.4 µM)?
A: 1.26

Q: What about the relative viability ([2]; first compound 1.265 µM) of the same cell line?
A: 0.703

Q: And the relative viability ([2]; first compound 4 µM)?
A: 0.97

Q: And the relative viability ([3]; first compound 0.04 µM)?
A: 0.959

Q: And the relative viability ([3]; first compound 0.1265 µM)?
A: 0.883

Q: What about the relative viability ([3]; first compound 0.4 µM) of the same cell line?
A: 1.12

Q: What about the relative viability ([3]; first compound 1.265 µM) of the same cell line?
A: 0.691

Q: And the relative viability ([3]; first compound 4 µM)?
A: 0.56

Q: And the relative viability ([4]; first compound 0.04 µM)?
A: 0.808

Q: And the relative viability ([4]; first compound 0.1265 µM)?
A: 0.669

Q: What about the relative viability ([4]; first compound 0.4 µM) of the same cell line?
A: 0.583

Q: And the relative viability ([4]; first compound 1.265 µM)?
A: 0.647

Q: What about the relative viability ([4]; first compound 4 µM) of the same cell line?
A: 0.853

Q: How did the relative viability ([1]; first compound 0.01 µM) turn out when NCI-H2126 was run?
A: 1.3

Q: And the relative viability ([1]; first compound 0.03162 µM)?
A: 0.983

Q: And the relative viability ([1]; first compound 0.1 µM)?
A: 1.2

Q: What about the relative viability ([1]; first compound 0.3162 µM) of the same cell line?
A: 0.862

Q: What about the relative viability ([1]; first compound 1 µM) of the same cell line?
A: 0.786

Q: What about the relative viability ([2]; first compound 0.04 µM) of the same cell line?
A: 0.75

Q: What about the relative viability ([2]; first compound 0.1265 µM) of the same cell line?
A: 0.704

Q: What about the relative viability ([2]; first compound 0.4 µM) of the same cell line?
A: 0.701

Q: What about the relative viability ([2]; first compound 1.265 µM) of the same cell line?
A: 0.567

Q: And the relative viability ([2]; first compound 4 µM)?
A: 0.499

Q: And the relative viability ([3]; first compound 0.04 µM)?
A: 0.599

Q: And the relative viability ([3]; first compound 0.1265 µM)?
A: 0.564

Q: What about the relative viability ([3]; first compound 0.4 µM) of the same cell line?
A: 0.507

Q: What about the relative viability ([3]; first compound 1.265 µM) of the same cell line?
A: 0.354

Q: What about the relative viability ([3]; first compound 4 µM) of the same cell line?
A: 0.307

Q: What about the relative viability ([4]; first compound 0.04 µM) of the same cell line?
A: 0.717

Q: What about the relative viability ([4]; first compound 0.1265 µM) of the same cell line?
A: 0.565

Q: And the relative viability ([4]; first compound 0.4 µM)?
A: 0.67

Q: And the relative viability ([4]; first compound 1.265 µM)?
A: 0.5

Q: What about the relative viability ([4]; first compound 4 µM) of the same cell line?
A: 0.457

Q: How did the relative viability ([1]; first compound 0.01 µM) turn out when NCI-H2170 was run?
A: 1.1

Q: What about the relative viability ([1]; first compound 0.03162 µM) of the same cell line?
A: 0.962

Q: What about the relative viability ([1]; first compound 0.1 µM) of the same cell line?
A: 0.981

Q: And the relative viability ([1]; first compound 0.3162 µM)?
A: 0.965

Q: What about the relative viability ([1]; first compound 1 µM) of the same cell line?
A: 0.667

Q: What about the relative viability ([2]; first compound 0.04 µM) of the same cell line?
A: 0.269

Q: What about the relative viability ([2]; first compound 0.1265 µM) of the same cell line?
A: 0.273

Q: And the relative viability ([2]; first compound 0.4 µM)?
A: 0.239

Q: And the relative viability ([2]; first compound 1.265 µM)?
A: 0.248

Q: And the relative viability ([2]; first compound 4 µM)?
A: 0.269

Q: What about the relative viability ([3]; first compound 0.04 µM) of the same cell line?
A: 0.535

Q: And the relative viability ([3]; first compound 0.1265 µM)?
A: 0.519

Q: And the relative viability ([3]; first compound 0.4 µM)?
A: 0.506

Q: What about the relative viability ([3]; first compound 1.265 µM) of the same cell line?
A: 0.483

Q: What about the relative viability ([3]; first compound 4 µM) of the same cell line?
A: 0.396

Q: And the relative viability ([4]; first compound 0.04 µM)?
A: 0.731

Q: What about the relative viability ([4]; first compound 0.1265 µM) of the same cell line?
A: 0.663

Q: What about the relative viability ([4]; first compound 0.4 µM) of the same cell line?
A: 0.914

Q: What about the relative viability ([4]; first compound 1.265 µM) of the same cell line?
A: 0.551

Q: What about the relative viability ([4]; first compound 4 µM) of the same cell line?
A: 0.484

Q: How did the relative viability ([1]; first compound 0.01 µM) turn out when NCI-H2228 was run?
A: 0.887

Q: What about the relative viability ([1]; first compound 0.03162 µM) of the same cell line?
A: 0.791

Q: And the relative viability ([1]; first compound 0.1 µM)?
A: 0.831

Q: What about the relative viability ([1]; first compound 0.3162 µM) of the same cell line?
A: 0.745

Q: And the relative viability ([1]; first compound 1 µM)?
A: 0.439

Q: What about the relative viability ([2]; first compound 0.04 µM) of the same cell line?
A: 1.02

Q: And the relative viability ([2]; first compound 0.1265 µM)?
A: 0.788

Q: What about the relative viability ([2]; first compound 0.4 µM) of the same cell line?
A: 1.07

Q: What about the relative viability ([2]; first compound 1.265 µM) of the same cell line?
A: 0.794

Q: What about the relative viability ([2]; first compound 4 µM) of the same cell line?
A: 0.486

Q: What about the relative viability ([3]; first compound 0.04 µM) of the same cell line?
A: 0.519

Q: And the relative viability ([3]; first compound 0.1265 µM)?
A: 0.478

Q: What about the relative viability ([3]; first compound 0.4 µM) of the same cell line?
A: 0.414

Q: What about the relative viability ([3]; first compound 1.265 µM) of the same cell line?
A: 0.279

Q: What about the relative viability ([3]; first compound 4 µM) of the same cell line?
A: 0.175

Q: And the relative viability ([4]; first compound 0.04 µM)?
A: 0.714

Q: What about the relative viability ([4]; first compound 0.1265 µM) of the same cell line?
A: 0.48

Q: And the relative viability ([4]; first compound 0.4 µM)?
A: 0.401

Q: What about the relative viability ([4]; first compound 1.265 µM) of the same cell line?
A: 0.566

Q: What about the relative viability ([4]; first compound 4 µM) of the same cell line?
A: 0.413

Q: How did the relative viability ([1]; first compound 0.01 µM) turn out when NCI-H2347 was run?
A: 0.914

Q: What about the relative viability ([1]; first compound 0.03162 µM) of the same cell line?
A: 1.15

Q: And the relative viability ([1]; first compound 0.1 µM)?
A: 0.633

Q: What about the relative viability ([1]; first compound 0.3162 µM) of the same cell line?
A: 0.494

Q: And the relative viability ([1]; first compound 1 µM)?
A: 0.468

Q: And the relative viability ([2]; first compound 0.04 µM)?
A: 0.991

Q: And the relative viability ([2]; first compound 0.1265 µM)?
A: 0.989

Q: And the relative viability ([2]; first compound 0.4 µM)?
A: 1.33

Q: And the relative viability ([2]; first compound 1.265 µM)?
A: 0.873

Q: What about the relative viability ([2]; first compound 4 µM) of the same cell line?
A: 0.83

Q: What about the relative viability ([3]; first compound 0.04 µM) of the same cell line?
A: 0.298

Q: And the relative viability ([3]; first compound 0.1265 µM)?
A: 0.3

Q: And the relative viability ([3]; first compound 0.4 µM)?
A: 0.316

Q: What about the relative viability ([3]; first compound 1.265 µM) of the same cell line?
A: 0.313

Q: And the relative viability ([3]; first compound 4 µM)?
A: 0.273

Q: What about the relative viability ([4]; first compound 0.04 µM) of the same cell line?
A: 0.524

Q: And the relative viability ([4]; first compound 0.1265 µM)?
A: 0.598

Q: And the relative viability ([4]; first compound 0.4 µM)?
A: 0.766

Q: What about the relative viability ([4]; first compound 1.265 µM) of the same cell line?
A: 0.555

Q: What about the relative viability ([4]; first compound 4 µM) of the same cell line?
A: 0.49

Q: Which relative viability ([1]; first compound 0.01 µM) does the source give for NCI-H2405 here?
A: 1.02

Q: What about the relative viability ([1]; first compound 0.03162 µM) of the same cell line?
A: 0.968

Q: What about the relative viability ([1]; first compound 0.1 µM) of the same cell line?
A: 0.918

Q: And the relative viability ([1]; first compound 0.3162 µM)?
A: 0.734

Q: And the relative viability ([1]; first compound 1 µM)?
A: 0.537

Q: And the relative viability ([2]; first compound 0.04 µM)?
A: 1.07

Q: What about the relative viability ([2]; first compound 0.1265 µM) of the same cell line?
A: 0.945

Q: And the relative viability ([2]; first compound 0.4 µM)?
A: 1.18

Q: And the relative viability ([2]; first compound 1.265 µM)?
A: 0.783

Q: And the relative viability ([2]; first compound 4 µM)?
A: 0.781

Q: And the relative viability ([3]; first compound 0.04 µM)?
A: 0.208

Q: And the relative viability ([3]; first compound 0.1265 µM)?
A: 0.191

Q: And the relative viability ([3]; first compound 0.4 µM)?
A: 0.216

Q: What about the relative viability ([3]; first compound 1.265 µM) of the same cell line?
A: 0.19

Q: And the relative viability ([3]; first compound 4 µM)?
A: 0.197

Q: And the relative viability ([4]; first compound 0.04 µM)?
A: 1.13

Q: And the relative viability ([4]; first compound 0.1265 µM)?
A: 1.06

Q: What about the relative viability ([4]; first compound 0.4 µM) of the same cell line?
A: 1.06

Q: What about the relative viability ([4]; first compound 1.265 µM) of the same cell line?
A: 0.682

Q: And the relative viability ([4]; first compound 4 µM)?
A: 0.59
